SMILES | melting point
O=C(N[C@@H]1C=CC[C@H]1O)OCC(Cl)(Cl)Cl | 82 to 84 °C
O=C(O)c1cnoc1-c1ccc(Cl)cc1Cl | 122 to 123 °C
COC(=O)CCCCCNC(=O)C[C@H]1O[C@H](c2cccc(OC)c2OC)c2cc(Cl)ccc2N(CC(C)(C)CO)C1=O | 131 to 132 °C
CCc1c(OC)nc2nc(C(N)=O)cn2c1C | 256 to 259 °C
CCCCCCOc1cc2c(cc1/C(C)=C/C=C/C(C)=C/C(=O)O)C(C)(C)CCCS2(=O)=O | 164 to 165 °C
CCC(C)(C)n1nnnc1S | 104 to 106 °C
Cc1cccc(C(=O)n2c3c(c4ccccc42)CC(C(=O)O)(C(=O)O)CC3)c1 | 195 to 200 °C
NCCc1c[nH]c2cc(Cl)c(NC(N)=O)cc12 | 212 to 213 °C
NC(=O)c1cccc(C2OCCO2)c1 | 92 to 94 °C
CCOC(=O)CC12CC1CCCC2=O (configuration not stated) | 154 to 156 °C
CCNCN1CN=C(c2ccc(OC)c(OC)c2)c2cc(OC)c(OC)cc21 | 128 to 130 °C
CS(=O)(=O)c1ccc(-c2ccccc2C=O)cc1 | 115 to 116 °C
CC(=O)Nc1ccccc1Oc1ccc(C#N)c(C#N)c1 | 152 to 154 °C
CCCNC(=O)c1ccccc1C(c1ccc(O)cc1)c1ccc(O)cc1 | 202 °C
Nc1cccc(C2=NNC(=O)C3CC23)c1 (configuration not stated) | 192 to 193 °C
COc1ccc(-c2nn(CC=Cc3ccccc3)c(=O)cc2-c2ccccc2)cc1 | 136 to 137 °C
O=C(O)CCCCCc1cccnc1 | 100 to 105 °C
COc1ccc(-c2cc(COS(C)(=O)=O)c(=O)n(Cc3ccc(F)cc3)n2)cc1F | 125 to 133 °C
CCNc1nc2ccccc2s1 | 93 °C
Cc1cc(OC(=S)N(C)C)nc(C(Cl)(Cl)Cl)n1 | 81 to 83 °C
O=C(CCCCl)NC1c2ccccc2CS(=O)(=O)c2ccccc21 (configuration not stated) | 215 to 227 °C
CCOC(=O)c1ncc2[nH]c3cccc(O)c3c2c1COC | 179 to 181 °C
COC(=O)c1ccc2c3cccc4cccc(c5ccc(C(=O)N(C)c6ccc(C(C)(C)C)cc6)c1c25)c43 | 272 °C
CSCC(C)C(=O)N(C)c1sc(-c2cccnc2)nc1Cl (configuration not stated) | 70 to 73 °C

SMILES | melting point
O=C(CCNCC(O)COc1cccc2occc12)NCc1ccccc1 (configuration not stated) | 109 to 110 °C
O=C1NC(=O)C(Cc2ccc(OCCc3nc(-c4ccccc4)oc3CO)cc2)S1 (configuration not stated) | 98 to 99 °C
OCc1c(Cl)c(Cl)c(Cl)c(CO)c1Cl | 228 to 230 °C
CCOC(=O)C(C#N)=Cc1cc([N+](=O)[O-])ccc1Cl | 83 to 85 °C
O=C(Nc1cccnc1S(=O)(=O)c1ccccc1)N[C@@H](Cc1ccc(NC(=O)c2c(Cl)cccc2Cl)cc1)C(=O)O | 181 °C
COc1ccc2c(c1OC)CCC1CN(C(=O)CCc3ccc([N+](=O)[O-])cc3)CC21 (configuration not stated) | 231 to 234 °C
CC1=N[C@H](c2ccccc2)COC1=O | 71 to 72 °C
CC(C)(COc1ccc(CNC(=O)C2Cc3ccccc3N2S(=O)(=O)c2ccc(-c3cccc(C(F)(F)F)c3)cc2)cc1)C(=O)O (configuration not stated) | 95 to 105 °C
CNC(=O)n1c(NC(=O)c2ccc(NC(=N)N)cc2)nc2ccccc21 | 188 to 190 °C
O=C(O)Cc1cccc(OCCCc2cn(-c3ccc(C(F)(F)F)cn3)nc2-c2ccccc2)c1 | 132 to 133 °C
CNc1nnc(-c2ccc3occ(-c4ccccc4Cl)c3c2)o1 | 205 to 206 °C
CCOC(=O)c1cc(-c2csc(-c3ccnc(NCC4CC4)c3)n2)c(=O)[nH]c1C | > 260 °C
Clc1ccc2c(c1)N=C1C=CC=CN1CO2 | 175 to 177 °C
CCc1cc(C)cc(CC)c1C(C(N)=O)C(N)=O | 184 to 186 °C
CC(=O)OC1CSC(Oc2cncc(-c3ccc(C)o3)c2)C(OC(C)=O)C1OC(C)=O (configuration not stated) | 124 °C
CCCc1nc2c(C)ccnc2n1Cc1ccc2[nH]ccc2c1 | 110 to 112 °C
COc1cc(C(C)=O)ccc1OCCCCN1CCC(c2noc3ccccc23)CC1 | 99 to 101 °C
OCCc1nccn1CCCc1ccc(OCc2coc(/C=C/c3c(F)cccc3F)n2)cc1 | 106 to 107 °C
CCOC(=O)NC(Cc1ccccc1)C(O)C(=O)O (configuration not stated) | 138 to 140 °C
CC(C)OC(=O)N1CCC(c2nc3cc(-c4ccc(C(=O)NCCO)c(F)c4)ccc3o2)CC1 | 145 to 147 °C
CS(=O)(=O)c1cc(CCC(=O)O)nc(-c2nc(=O)c3ccc(Cl)cc3s2)c1 | 229 °C
CCCCOCCCn1c(CCCC)nc2c(N)nc3cccnc3c21 | 101 to 102 °C
COc1ccc(C2=C(C#N)C(c3ccccc3OC)c3c[nH]nc3N2)cc1 (configuration not stated) | 149 °C
CC(C)(C)OC(=O)N1CCC(c2nc3cc(-c4ccc(S(C)(=O)=O)cc4F)ccc3[nH]2)CC1 | 88 to 92 °C

SMILES | melting point
COC(=O)CCC(=O)c1cc(C(=O)N(C)C)cs1 | 98 to 100 °C
CCN(C(=O)OC(C)(C)C)c1cnn(C(C)(C)C)c1Cl | 50 to 52 °C
Cn1cncc1C(O)(c1ccoc1)c1ccc2nc(Cl)cc(-c3cccc(Cl)c3)c2c1 (configuration not stated) | 246 °C
Cc1nc2c(N)nc3c(c2n1CCCCS(=O)(=O)C(C)(C)C)CCCC3 | 208 to 210 °C
NC(=O)NCCNc1ccc([N+](=O)[O-])cc1 | 187 °C
COc1ccc2c(c1)/C(=C\CNC(=O)NC(C)(C)C)C(C)(C)CC2 | 175 to 176 °C
COc1cccc([C@H]2O[C@H](CC(=O)Nc3ncc(CCC(=O)O)s3)C(=O)N(CC(C)(C)CO)c3ccc(Cl)cc32)c1OC | 203 to 205 °C
COc1cc2c(cc1OC)-c1ccc(OC)c(OC)c1C2=Cc1ccnc2ccccc12 | 203 to 205 °C
COc1cc2c(cc1OC)CN(Cc1ccc(OC(=O)N(C)C)c(OC)c1)CC2 | 126 to 128 °C
NCC(c1ccc(Cl)c(Cl)c1)C1CCCCC1O (mixture of isomers) | 117 to 118 °C
CCOC(=O)C=Cc1cc(C=CC(=O)OCC)cc(CO)c1 | 68 to 69.5 °C
C[C@H]1N(C(=O)c2ccc(C(F)(F)F)cc2)CC(=O)O[C@@]1(Cn1cncn1)c1ccc(C(F)(F)F)cc1 (relative stereo) | 189 to 190 °C
CC(C)C[C@@H](C(=O)O)N(C)Cc1ccc(C(C)(C)C)cc1 | 110 to 112 °C
CC(NC(=O)OC(C)(C)C)C1CCN(c2c(F)c(N)c3c(=O)[nH]c(=O)n4c3c2OCC4C)C1 (configuration not stated) | 136 to 138 °C
CCCCNC(=O)OCC(=NNC(N)=S)c1ccccc1 | 103 to 116 °C
COC(=O)CCCN1CCC(CNC(=O)[C@@H]2CCCN2S(=O)(=O)c2ccc(Cl)c(COc3cccc4c(-n5ccnc5)cc(C)nc34)c2Cl)CC1 | 98 °C
CCOP(=O)(CC(Nc1cccnc1)c1cc(OC)c(OC)c(OC)c1)OCC (configuration not stated) | 104 to 106 °C
Cc1cc2c([N+](=O)[O-])cccc2c(Cl)n1 | 112 °C
CCNc1nc(NCc2ccc(NC(=O)C3CCN(Cc4ccccc4)CC3)cc2)c2ccc(C)cc2n1 | 55 °C
CCC(=O)c1ccc(OC)c(C)c1C | 39 to 40 °C
Oc1ccc2ccc(OCc3ccccn3)cc2c1 | 190 to 193 °C
CC(=O)c1ccc(Oc2ncccc2C(=O)O)cc1 | 184 to 186 °C
CC(C)n1cc(C(=O)O)c2ccc(Cl)cc21 | 206 to 208 °C
C=C(C)C(=O)N(SC1CCCCC1)c1ccccc1 | 56 to 56.5 °C

— a melting point compilation (Tetko et al.; mined from patent text by program, amines drawn as free bases though some values may be those of a salt)
